Experimental findings from publication PMC9942839, “Structural remodeling of AAA+ ATPase p97 by adaptor protein ASPL facilitates posttranslational methylation by METTL21D” (Proceedings of the National Academy of Sciences of the …, 2023) are described below.

Residue numbers refer to the chain shown, from its start.

Experiment [1] has as its target T1, METTL21D in p97-ND1:ASPL-CΔ:METTL21D (Homo sapiens, UniProt Q9H867).
T1 construct: gene VCPKMT; 1:1:1 heterotrimer ~110 kDa; METTL21D His tag cleaved by TEV; p97-ND1 fragment lacking D2 domain, Lys315 trimethylated; ASPL-CΔ residues 313-500; E. coli; with Transitional endoplasmic reticulum ATPase; Tether containing UBX domain for GLUT4
Nature of the experiment: X-ray crystal structure, […] Å. The settings on record: METTL21D active site; crystallized with SAM, product of p97 Lys315 trimethylation; contacts Asp96, Trp126. The class given is binding.

The target in experiment [2] is T2, AtMETTL21D (Arabidopsis thaliana, UniProt F4HUD6).
T2 construct: gene At1g08125; E. coli; His tag cleaved by TEV
T2 sequence (F4HUD6 15-239): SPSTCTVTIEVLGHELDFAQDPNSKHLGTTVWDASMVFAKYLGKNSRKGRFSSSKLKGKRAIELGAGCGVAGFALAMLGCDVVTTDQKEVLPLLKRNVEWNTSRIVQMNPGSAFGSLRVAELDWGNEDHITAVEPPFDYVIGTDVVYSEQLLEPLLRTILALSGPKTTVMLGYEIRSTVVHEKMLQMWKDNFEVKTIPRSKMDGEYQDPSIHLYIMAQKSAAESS
Briefly: methylation assay, anti-monomethyl-lysine western blot. The class given is biochemical. Conditions: automethylation and monomethylation of AtCDC48 in the presence of PUX1; pH 8.0, RT. (Immunoblotting shows a protein as a band on a membrane.)

The target in experiment [3] is T3, AtMETTL21D (Arabidopsis thaliana, UniProt F4HUD6, C19S/L26V, form not given).
T3 construct: gene At1g08125; E. coli; His tag cleaved by TEV
T3 sequence (F4HUD6 15-239 C19S/L26V): T2 sequence (F4HUD6 15-239) with C5S, L12V
Briefly: methylation assay, anti-Kme3 western blot. It is filed as biochemical. Conditions: co-substrate AtCDC48; weak gain of trimethylation; 20 mM HEPES pH 8.0, 200 mM NaCl, RT.

T1 sequence (Q9H867 2-229 limits assumed, stated change not applied): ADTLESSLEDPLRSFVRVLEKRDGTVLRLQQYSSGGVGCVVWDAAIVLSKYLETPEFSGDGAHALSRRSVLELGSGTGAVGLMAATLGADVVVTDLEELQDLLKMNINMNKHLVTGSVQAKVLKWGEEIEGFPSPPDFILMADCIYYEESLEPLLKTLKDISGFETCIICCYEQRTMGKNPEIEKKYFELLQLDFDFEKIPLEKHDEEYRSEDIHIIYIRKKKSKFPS
T1 sequence (P55072 2-480 partner limits assumed): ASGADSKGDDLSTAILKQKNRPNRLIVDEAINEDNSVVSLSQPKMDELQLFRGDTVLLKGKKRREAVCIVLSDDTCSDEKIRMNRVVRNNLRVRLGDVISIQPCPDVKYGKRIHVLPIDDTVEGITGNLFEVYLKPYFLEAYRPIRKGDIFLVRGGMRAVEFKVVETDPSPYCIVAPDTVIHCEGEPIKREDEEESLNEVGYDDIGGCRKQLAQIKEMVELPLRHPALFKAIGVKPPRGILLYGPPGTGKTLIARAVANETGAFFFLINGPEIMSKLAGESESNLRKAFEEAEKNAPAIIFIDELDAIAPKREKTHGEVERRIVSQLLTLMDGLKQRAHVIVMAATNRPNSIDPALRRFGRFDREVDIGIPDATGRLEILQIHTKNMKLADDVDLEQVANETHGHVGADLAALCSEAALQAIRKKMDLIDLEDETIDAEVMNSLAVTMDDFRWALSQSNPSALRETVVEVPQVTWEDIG
T1 sequence (Q9BZE9 313-500 partner): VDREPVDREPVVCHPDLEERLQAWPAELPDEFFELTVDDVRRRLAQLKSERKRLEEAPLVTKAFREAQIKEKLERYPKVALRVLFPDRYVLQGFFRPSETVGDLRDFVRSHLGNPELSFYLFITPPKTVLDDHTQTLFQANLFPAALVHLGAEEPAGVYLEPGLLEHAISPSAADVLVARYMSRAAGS

For the molecule `Nc1ncnc2c1ncn2[C@@H]1O[C@H](CSCC[C@H](N)C(=O)O)[C@@H](O)[C@H]1O` [S-adenosyl-L-homocysteine], the “X-ray crystal structure, 3.0 Å” value in experiment [1] is “the active site of METTL21D contains a S-adenosyl-L-homocysteine (SAH) molecule”. Regarding `C[S+](CC[C@H](N)C(=O)O)C[C@H]1O[C@@H](n2cnc3c(N)ncnc32)[C@H](O)[C@@H]1O` (stereo partly drawn) [S-adenosyl-methionine], the “methylation assay, anti-monomethyl-lysine western blot” value in experiment [2] was “AtMETTL21D monomethylated itself, as well as AtCDC48 in the presence of PUX1”. The “methylation assay, anti-Kme3 western blot” value in experiment [3] is “substitution of leucine with valine in plant AtMETTL21D resulted in gain of trimethylation activity”.
